How the values were obtained:
children with ASD [1] = experiment: Vital signs, change from baseline, 4-week trial; type: in vivo, human; details: after 4-week treatment
Protocol: (§1) Commercially available injectable sterile AVP was used in this study. It was initially purchased from JHP Pharmaceuticals (Rochester, MI), which was subsequently acquired by Par Sterile Products (Chestnut Ridge, NY) in 2014. The placebo solution was prepared by Koshland Pharm (San Francisco, CA) and consisted of ingredients used in the active solution except the AVP compound. A pharmacist transferred 25 mL of AVP (20 International Units (IU)/mL) or placebo solutions into sterile amber glass bottles with metered (0.1 mL/per puff) nasal spray applicators to ensure that the AVP and placebo applicators were visually indistinguishable to the research team. These applicators were coded and given to the Stanford Health Care's Investigational Drug Service (IDS) for refrigerated storage (2-8° C.) and subsequent dispensing. Following the first AVP dose (see below), the dose escalation regimen for all participants involved administration of 4 IU twice daily (or BID) of AVP during week 1 and 8 IU BID of AVP during week 2. Participants aged 6 to 9.5 years then received 12 IU BID of AVP during weeks 3 and 4, while participants aged 9.6 to 12.92 years received 16 IU BID of AVP during weeks 3 and 4.
(§2) Parents were trained in the clinic by research staff to administer the nasal spray to their child. The first dose was administered in the ADDC under the direct supervision of the research team (with the first dose being 12 IU for participants aged 6 to 9.5 years and 16 IU for participants aged 9.6 to 12.92 years). Vital signs were monitored before, and 20 minutes after, initial single-dose nasal spray administration to monitor for acute, unanticipated reactions to AVP. Participants' parents then received two 25 mL nasal spray bottles containing either AVP or placebo for 4 weeks of at-home dispensing (as described above), for which they were responsible for their child's continued twice daily dosing. Parents were instructed to keep the bottles refrigerated with only brief room temperature excursions (i.e., for dosing). Participants underwent weekly safety/tolerability assessments in the clinic to monitor for adverse events. On completion of the 4-week treatment period, behavioral data, safety/tolerability data, and blood samples were again collected. After completion of the trial, participants randomized to the placebo group were invited to participate in an optional open-label 4-week AVP treatment phase to ensure that all children had the opportunity to receive AVP treatment.
(§3) Throughout the trial, safety and tolerability were assessed weekly using the following measurements: vital signs, 12-lead electrocardiogram, clinical chemistry labs, and height and weight. Side effects were evaluated with the DOTES (51), and modified to assess potential side effects that might be related to AVP such as hyponatremia/water intoxication. Finally, based on animal studies showing that AVP can induce aggressive behavior under some circumstances (39, 40), the OAS was used to monitor for observable aggressive or violent behavior in this trial (52).
(§4) Treatment effect generalizability was evaluated using: 1) the RBS-R which measures a comprehensive list of repetitive and stereotyped behaviors (61); and 2) The Spence Children's Anxiety Scale which assesses the severity of trait anxiety symptoms broadly in line with DSM dimensions of anxiety disorder (62). Anxiety was selected as an outcome measure due to its significant comorbidity with ASD (63). Finally, safety and tolerability were evaluated using: 1) the DOTES (51); and 2) change from baseline in electrocardiogram, clinical chemistry labs, vital signs (i.e., blood pressure, heart rate, temperature), as well as height and weight.
(§5) One-way LS-GLMs were used to test the change from baseline between the AVP and placebo treatment groups following 4-week treatment for adverse events and safety measures. […]

children with ASD [2] = experiment: Clinical chemistry, change from baseline, 4-week trial; type: in vivo, human; details: after 4-week treatment
Protocol: as §1, §2, §3
Whole blood was drawn from the child's antecubital region by a pediatric phlebotomist using standard protocols at Lucile Packard Children's Hospital outpatient laboratory. A portion of the sample was collected per standard laboratory protocols and sent for clinical chemistry analysis. To evaluate AVP concentrations, whole blood was also collected into chilled EDTA-treated vacutainer tubes and immediately placed on wet ice. Samples were promptly centrifuged (1600×g at 4° C. for 15 min), the plasma fraction aliquoted into polypropylene tubes, and flash-frozen on dry ice. Whole blood was also collected into PAXgene RNA tubes (Qiagen, CA) and processed per manufacturer instruction to evaluate neuropeptide receptor gene expression [i.e., oxytocin receptor (OXTR) and AVPR1A]. All samples were stored at −80° C. until quantification. […]

children with ASD [3] = experiment: Height and weight, change from baseline, 4-week trial; type: in vivo, human; details: after 4-week treatment
Protocol: Commercially available injectable sterile AVP was used in this study. It was initially purchased from JHP Pharmaceuticals (Rochester, MI), which was subsequently acquired by Par Sterile Products (Chestnut Ridge, NY) in 2014. The placebo solution was prepared by Koshland Pharm (San Francisco, CA) and consisted of ingredients used in the active solution except the AVP compound. A pharmacist transferred 25 mL of AVP (20 International Units (IU)/mL) or placebo solutions into sterile amber glass bottles with metered (0.1 mL/per puff) nasal spray applicators to ensure that the AVP and placebo applicators were visually indistinguishable to the research team. […]
Parents were trained in the clinic by research staff to administer the nasal spray to their child. […] Vital signs were monitored before, and 20 minutes after, initial single-dose nasal spray administration to monitor for acute, unanticipated reactions to AVP. […]
Throughout the trial, safety and tolerability were assessed weekly using the following measurements: vital signs, 12-lead electrocardiogram, clinical chemistry labs, and height and weight. Side effects were evaluated with the DOTES (51), and modified to assess potential side effects that might be related to AVP such as hyponatremia/water intoxication. […]

children with ASD [4] = experiment: 12-lead electrocardiogram, change from baseline, 4-week trial; type: in vivo, human; details: after 4-week treatment
Protocol: as §1, §2, §3, §4, §5

children with ASD [5] = experiment: Adverse events assessed by the DOTES and OAS, 4-week trial; type: in vivo, human
Protocol: as §1, §2, §3
One-way LS-GLMs were used to test the change from baseline between the AVP and placebo treatment groups following 4-week treatment for adverse events and safety measures. Fisher's exact Test was used to test for differences between treatment conditions for participant characteristics and concomitant medications. Suitable transformations were applied as needed.

[6] = intranasal administration; cited from earlier work
[7] = system: high-functioning adults with ASD; details: single dose intravenous, cited from earlier work
ASD in children = experiment: Intranasal administration of desmopressin in children with ASD; type: in vivo, human
[8] = Dermatological, 4-week treatment, N = 17
[9] = Gastrointestinal, 4-week treatment, N = 17
[10] = General, 4-week treatment, N = 17
[11] = HEENT, 4-week treatment, N = 17
[12] = Neurological/Psychiatric, 4-week treatment, N = 17
[13] = Renal, 4-week treatment, N = 17
[14] = post hoc sub-test, not corrected for multiple comparisons

Structure (SMILES): NC(=O)CC[C@@H]1NC(=O)[C@H](Cc2ccccc2)NC(=O)[C@H](Cc2ccc(O)cc2)NC(=O)[C@@H](N)CSSC[C@@H](C(=O)N2CCC[C@H]2C(=O)N[C@@H](CCCN=C(N)N)C(=O)NCC(N)=O)NC(=O)[C@H](CC(N)=O)NC1=O [AVP, arginine vasopressin]
- Change from baseline LSM +/− SE: BP Change Diastolic (Standin-Sitting) (children with ASD [1]): −3.1 ± 2.65
- Change from baseline LSM +/− SE: BP Change Systolic (Standing-Sitting) (children with ASD [1]): −3.6 ± 2.76
- Change from baseline LSM +/− SE: BP, Diastolic, Sitting (children with ASD [1]): 3.2 ± 2.09 mmHg
- Change from baseline LSM +/− SE: BP, Diastolic, Standing (children with ASD [1]): 0.1 ± 2.31 mmHg
- Change from baseline LSM +/− SE: BP, Systolic, Sitting (children with ASD [1]): 5.5 ± 2.53 mmHg
- Change from baseline LSM +/− SE: BP, Systolic, Standing (children with ASD [1]): 1.9 ± 2.38 mmHg
- Change from baseline LSM +/− SE: Pulse change (children with ASD [1]): 2.1 ± 2.75 beats per minute
- Change from baseline LSM +/− SE: Pulse sitting (children with ASD [1]): 1.9 ± 3.87 beats per minute
- Change from baseline LSM +/− SE: Pulse standing (children with ASD [1]): 4.0 ± 3.57 beats per minute
- Change from baseline LSM +/− SE: Temperature (children with ASD [1]): 0.2 ± 0.17 ° F.
- Changes from baseline in vital signs (children with ASD [1]): No significant changes from baseline
- Change from baseline LSM +/− SE: Anion Gap (children with ASD [2]): -0.65 ± 0.78 mmol/L
- Change from baseline LSM +/− SE: CO2 (children with ASD [2]): -0.12 ± 0.57 mmol/L
- Change from baseline LSM +/− SE: Calcium (children with ASD [2]): 0.047 ± 0.07 mg/dL
- Change from baseline LSM +/− SE: Chloride (children with ASD [2]): 1.0 ± 0.56 mmol/L
- Change from baseline LSM +/− SE: Creatine (children with ASD [2]): -0.017 ± 0.03 mg/dL
- Change from baseline LSM +/− SE: Glucose (children with ASD [2]): 2.2 ± 4.41 mg/dL
- Change from baseline LSM +/− SE: Osmolality (Serum) (children with ASD [2]): 0.18 ± 1.01 mOsm/kg
- Change from baseline LSM +/− SE: Osmolality (Urine) (children with ASD [2]): 8.5 ± 82.6 mOsm/kg
- Change from baseline LSM +/− SE: Potassium (children with ASD [2]): 0.15 ± 0.11 mmol/L
- Change from baseline LSM +/− SE: Sodium (children with ASD [2]): 0.24 ± 0.63 mmol/L
- Change from baseline LSM +/− SE: Urea Nitrogen (children with ASD [2]): -1.3 ± 0.78 mg/dL
- Changes from baseline in clinical chemistry (children with ASD [2]): No significant changes from baseline
- Change from baseline LSM +/− SE: Height (children with ASD [3]): 0.8 ± 0.23 centimeters
- Changes from baseline in physiological measures (children with ASD [3]): No significant changes from baseline
- Changes from baseline in 12-lead electrocardiogram (children with ASD [4]): No significant changes from baseline
- Change from baseline LSM +/− SE: Bazett’s Corrected QT Interval (children with ASD [4]; electrocardiogram): -1.9 ± 5.07 ms
- Change from baseline LSM +/− SE: Heart Rate (children with ASD [4]; electrocardiogram): −2.5 ± 3.75 bpm
- Change from baseline LSM +/− SE: P Duration (children with ASD [4]; electrocardiogram): -2.6 ± 5.76 ms
- Change from baseline LSM +/− SE: PR Intervals (children with ASD [4]; electrocardiogram): -4.6 ± 6.40 ms
- Change from baseline LSM +/− SE: QRS Interval (children with ASD [4]; electrocardiogram): 0.4 ± 1.55 ms
- Change from baseline LSM +/− SE: QT Interval (children with ASD [4]; electrocardiogram): 3.5 ± 5.53 ms
- Tolerability (children with ASD [5]; 4-week intranasal treatment): well tolerated with minimal adverse effects
- Adverse event rates compared to placebo-treated group (DOTES, OAS) (children with ASD [5]; 4-week treatment, parent ratings): no significant differences
- Adverse event: Bug bite (children with ASD [5]; [8]): 1 (6%) counts and percentages
- Adverse event: Skin burn (children with ASD [5]; [8]): 0 (0%) counts and percentages
- Adverse event: Skin rash (children with ASD [5]; [8]): 1 (6%) counts and percentages
- Adverse event: Constipation (children with ASD [5]; [9]): 1 (6%) counts and percentages
- Adverse event: Decreased appetite (children with ASD [5]; [9]): 4 (24%) counts and percentages
- Adverse event: Diarrhea (children with ASD [5]; [9]): 0 (0%) counts and percentages
- Adverse event: Nausea/vomiting (children with ASD [5]; [9]): 2 (12%) counts and percentages
- Adverse event: Body ache (children with ASD [5]; [10]): 1 (6%) counts and percentages
- Adverse event: Cough (children with ASD [5]; [10]): 1 (6%) counts and percentages
- Adverse event: Fever (children with ASD [5]; [10]): 2 (12%) counts and percentages
- Adverse event: Blurred vision (children with ASD [5]; [11]): 1 (6%) counts and percentages
- Adverse event: Cold sore (children with ASD [5]; [11]): 0 (0%) counts and percentages
- Adverse event: Dry mouth (children with ASD [5]; [11]): 1 (6%) counts and percentages
- Adverse event: Ear infection (children with ASD [5]; [11]): 0 (0%) counts and percentages
- Adverse event: Nasal congestion (children with ASD [5]; [11]): 3 (18%) counts and percentages
- Adverse event: Runny nose (children with ASD [5]; [11]): 0 (0%) counts and percentages
- Adverse event: Sore throat (children with ASD [5]; [11]): 0 (0%) counts and percentages
- Adverse event: Aggression (children with ASD [5]; [12]): 1 (6%) counts and percentages
- Adverse event: Akathisia (children with ASD [5]; [12]): 1 (6%) counts and percentages
- Adverse event: Decreased motor activity (children with ASD [5]; [12]): 1 (6%) counts and percentages
- Adverse event: Depressive affect (children with ASD [5]; [12]): 2 (12%) counts and percentages
- Adverse event: Dizziness (children with ASD [5]; [12]): 0 (0%) counts and percentages
- Adverse event: Drowsiness (children with ASD [5]; [12]): 1 (6%) counts and percentages
- Adverse event: Excitement/agitation (children with ASD [5]; [12]): 4 (24%) counts and percentages
- Adverse event: Head banging (children with ASD [5]; [12]): 1 (7%) counts and percentages
- Adverse event: Headache (children with ASD [5]; [12]): 2 (12%) counts and percentages
- Adverse event: Increased motor activity (children with ASD [5]; [12]): 4 (24%) counts and percentages
- Adverse event: Insomnia (children with ASD [5]; [12]): 4 (24%) counts and percentages
- Adverse event: Lethargy/tiredness (children with ASD [5]; [12]): 0 (0%) counts and percentages
- Adverse event: Bed wetting (children with ASD [5]; [13]): 1 (6%) counts and percentages
- Adverse event: Increased urination (children with ASD [5]; [13]): 1 (6%) counts and percentages
- Cerebrospinal fluid (CSF) concentrations of measured AVP [6]: elevated

Structure (SMILES): CN(C)CCn1cc(C(=O)N2CCC3(CC2)OCc2ccccc23)c2ccc(Cl)cc21 [RG7713]
- Improvements on overall composite tests [7]: non-significant
- Ability to detect lust on an affective speech recognition task [7, 14]: reduced
- Biological motion orienting preference [7, 14]: increased

Structure (SMILES): NC(=O)CC[C@@H]1NC(=O)[C@H](Cc2ccccc2)NC(=O)[C@H](Cc2ccc(O)cc2)NC(=O)CCSSC[C@@H](C(=O)N2CCC[C@H]2C(=O)N[C@H](CCCN=C(N)N)C(=O)NCC(N)=O)NC(=O)[C@H](CC(N)=O)NC1=O [desmopressin, 1-deamino-8-D-arginine-vasopressin]
- Treatment of ASD in children (ASD in children): not found to effectively treat ASD
